From patent publication US20060014806A1 (published 2006)

SMILES | melting point [°C]
COC(=O)NCC#Cc1ccc(OCCCOc2c(Cl)cc(OCC=C(Cl)Cl)cc2Cl)cc1 | 78 to 81
CC(C)NC(=O)/C(C#N)=C/c1ccc(OCCCOc2c(Cl)cc(OCC=C(Cl)Cl)cc2Cl)cc1 | 88 to 93
CO/N=C1/C=C(c2ccc(OCCCOc3c(Cl)cc(OCC=C(Cl)Cl)cc3Cl)cc2)CC1 | 100 to 103
